Results on 28 molecules are retold here after US9682983B2, “BMP inhibitors and methods of use thereof” (THE BRIGHAM AND WOMEN'S HOSPITAL, INC., priority 2013, dated 2017).

In this test the target is human ALK2 (Homo sapiens (Human), UniProt Q04771). Kind of test: LANCE Ultra ULight enzymatic assay (FOP Enzymatic Assay), ALK2. In kind it is biochemical. The following applies: read-out: ALK2 IC50 (nM) at 10 μM ATP; 10 μM ATP. In general terms: TR-FRET usually uses a lanthanide donor and a delayed reading to cut background.
Sequence of human ALK2 (Q04771 21-509): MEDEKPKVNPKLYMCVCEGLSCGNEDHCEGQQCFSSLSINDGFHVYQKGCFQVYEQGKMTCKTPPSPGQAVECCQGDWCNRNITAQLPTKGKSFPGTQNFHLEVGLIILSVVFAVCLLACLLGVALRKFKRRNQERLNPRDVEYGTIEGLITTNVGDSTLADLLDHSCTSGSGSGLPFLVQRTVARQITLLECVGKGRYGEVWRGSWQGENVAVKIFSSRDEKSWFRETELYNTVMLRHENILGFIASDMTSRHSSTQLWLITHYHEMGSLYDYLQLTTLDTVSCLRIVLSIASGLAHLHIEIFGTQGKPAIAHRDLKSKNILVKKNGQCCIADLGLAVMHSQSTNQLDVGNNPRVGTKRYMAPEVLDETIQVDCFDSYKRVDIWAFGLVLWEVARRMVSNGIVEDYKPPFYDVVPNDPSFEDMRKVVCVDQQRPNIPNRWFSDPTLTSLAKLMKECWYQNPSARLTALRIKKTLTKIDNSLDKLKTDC
On to `c1ccc2c(-c3cnn4cc(-c5ccc(N6CCNCC6)cn5)cnc34)ccnc2c1` [Compound 3], for which the IC50 was found to be 16 nM.
For `C(#Cc1cnc2c(-c3ccnc4ccccc34)cnn2c1)CN1CCNCC1` [Compound 4, 4-(6-(3-(piperazin-1-yl)prop-1-ynyl)pyrazolo[1,5-a]pyrimidin-3-yl)quinoline] the value was 68 nM; for `c1ccc2c(-c3cnn4cc(-c5cnc(N6CCNCC6)nc5)cnc34)ccnc2c1` [Compound 5, 4-(6-(2-(piperazin-1-yl)pyrimidin-5-yl)pyrazolo[1,5-a]pyrimidin-3-yl)quinoline], 103 nM; for `c1ccc2c(-c3cnn4cc(-c5ccc(N6C[C@@H]7C[C@H]6CN7)cc5)cnc34)ccnc2c1` [Compound 6, 4-(6-(4-((1S,4S)-2,5-diazabicyclo[2.2.1]heptan-2-yl)phenyl)pyrazolo[1,5-a]pyrimidin-3-yl)quinoline], 12 nM.
For `c1ccc2c(-c3cnn4cc(-c5ncc(N6CCNCC6)s5)cnc34)ccnc2c1` [Compound 7, 5-(piperazin-1-yl)-2-(3-(quinolin-4-yl)pyrazolo[1,5-a]pyrimidin-6-yl)thiazole] the value was 19 nM; for `Clc1cc(-c2cnn3cc(-c4ccc(N5CCNCC5)cc4)cnc23)c2ccccc2n1` [Compound 8, 2-chloro-4-(6-(4-(piperazin-1-yl)phenyl)pyrazolo[1,5-a]pyrimidin-3-yl)quinoline], 24 nM.
For `Oc1cc(-c2cnn3cc(-c4ccc(N5CCNCC5)cc4)cnc23)c2ccccc2n1` [Compound 9, 4-(6-(4-(piperazin-1-yl)phenyl)pyrazolo[1,5-a]pyrimidin-3-yl)quinolin-2-ol] the value was 792 nM.
Turning to `Cc1cc(-c2cnn3cc(-c4ccc(N5[C@H](C)CNC[C@@H]5C)cc4)cnc23)c2ccccc2n1` [Compound 11, 4-(6-(4-((2R,6S)-2,6-dimethylpiperazin-1-yl)phenyl)pyrazolo[1,5-a]pyrimidin-3-yl)-2-methylquinoline], the IC50 stood at 7.7 nM.
As to `OCCNCc1ccc2c(-c3cnn4cc(-c5ccc(N6CCNCC6)cc5)cnc34)ccnc2c1` [Compound 14, 2-(((4-(6-(4-(piperazin-1-yl)phenyl)pyrazolo[1,5-a]pyrimidin-3-yl)quinolin-7-yl)methyl)amino)ethanol], the IC50 is 517 nM.
Regarding `NC(=O)c1ccc2c(-c3cnn4cc(-c5ccc(N6CCNCC6)cc5)cnc34)ccnc2c1` [Compound 15, 4-(6-(4-(piperazin-1-yl)phenyl)pyrazolo[1,5-a]pyrimidin-3-yl)quinoline-7-carboxamide], the IC50 was 127 nM.
The figure for `OCc1ccc2c(-c3cnn4cc(-c5ccc(N6CCNCC6)cc5)cnc34)ccnc2c1` [Compound 16, (4-(6-(4-(piperazin-1-yl)phenyl)pyrazolo[1,5-a]pyrimidin-3-yl)quinolin-7-yl)methanol] is 102 nM; for `CNCc1ccc2c(-c3cnn4cc(-c5ccc(N6CCNCC6)cc5)cnc34)ccnc2c1` [Compound 18, N-methyl-1-(4-(6-(4-(piperazin-1-yl)phenyl)pyrazolo[1,5-a]pyrimidin-3-yl)quinolin-7-yl)methanamine] it is 906 nM.
Consider `CN(C)Cc1ccc2c(-c3cnn4cc(-c5ccc(N6CCNCC6)cc5)cnc34)ccnc2c1` [Compound 19, N,N-dimethyl-1-(4-(6-(4-(piperazin-1-yl)phenyl)pyrazolo[1,5-a]pyrimidin-3-yl)quinolin-7-yl)methanamine], for which the concentration for half-maximal inhibition (IC50) amounted to 407 nM.
For `NCc1ccc2c(-c3cnn4cc(-c5ccc(N6CCNCC6)cc5)cnc34)ccnc2c1` [Compound 20, (4-(6-(4-(piperazin-1-yl)phenyl)pyrazolo[1,5-a]pyrimidin-3-yl)quinolin-7-yl)methanamine] the value was 706 nM; for `c1cc(-c2cnn3cc(-c4ccc(N5CCNCC5)cc4)cnc23)c2ccc(CN3CCCC3)cc2n1` [Compound 21, 4-(6-(4-(piperazin-1-yl)phenyl)pyrazolo[1,5-a]pyrimidin-3-yl)-7-(pyrrolidin-1-ylmethyl)quinoline], 2140 nM.
For `O=C(O)c1cccc2c(-c3cnn4cc(-c5ccc(N6CCNCC6)cc5)cnc34)ccnc12` [Compound 22, 4-(6-(4-(piperazin-1-yl)phenyl)pyrazolo[1,5-a]pyrimidin-3-yl)quinoline-8-carboxylic acid] the value was 88 nM.
For `NC(=O)c1cccc2c(-c3cnn4cc(-c5ccc(N6CCNCC6)cc5)cnc34)ccnc12` [Compound 23, 4-(6-(4-(piperazin-1-yl)phenyl)pyrazolo[1,5-a]pyrimidin-3-yl)quinoline-8-carboxamide] the value was 26 nM; for `OCc1cccc2c(-c3cnn4cc(-c5ccc(N6CCNCC6)cc5)cnc34)ccnc12` [Compound 24, (4-(6-(4-(piperazin-1-yl)phenyl)pyrazolo[1,5-a]pyrimidin-3-yl)quinolin-8-yl)methanol], 62 nM; for `NCc1cccc2c(-c3cnn4cc(-c5ccc(N6CCNCC6)cc5)cnc34)ccnc12` [Compound 25, (4-(6-(4-(piperazin-1-yl)phenyl)pyrazolo[1,5-a]pyrimidin-3-yl)quinolin-8-yl)methanamine], 482 nM.
For the molecule `CC(=O)Nc1ccc2c(-c3cnn4cc(-c5ccc(N6CCNCC6)cc5)cnc34)ccnc2c1` [Compound 26, N-(4-(6-(4-(piperazin-1-yl)phenyl)pyrazolo[1,5-a]pyrimidin-3-yl)quinolin-7-yl)acetamide], the IC50 is 105 nM.
For `Nc1ccc2c(-c3cnn4cc(-c5ccc(N6CCNCC6)cc5)cnc34)ccnc2c1` [Compound 27, 4-(6-(4-(piperazin-1-yl)phenyl)pyrazolo[1,5-a]pyrimidin-3-yl)quinolin-7-amine] the value was 44 nM; for `Oc1ccc2c(-c3cnn4cc(-c5ccc(N6CCNCC6)cc5)cnc34)ccnc2c1` [Compound 28, 4-(6-(4-(piperazin-1-yl)phenyl)pyrazolo[1,5-a]pyrimidin-3-yl)quinolin-7-ol], 31 nM.
For `c1cc(-c2cnn3cc(-c4ccc(OCCN5CCCCC5)nc4)cnc23)c2cccnc2c1` [Compound 29, 5-(6-(6-(2-(piperidin-1-yl)ethoxy)pyridin-3-yl)pyrazolo[1,5-a]pyrimidin-3-yl)quinoline] the value was 127 nM.
For `c1cc(-c2cnn3cc(-c4ccc(N5CCNCC5)nc4)cnc23)c2cccnc2c1` [Compound 30, 5-(6-(6-(piperazin-1-yl)pyridin-3-yl)pyrazolo[1,5-a]pyrimidin-3-yl)quinoline] the value was 84 nM; for `c1cc(-c2cnn3cc(-c4ccc(OCCN5CCCCC5)cc4)cnc23)c2cccnc2c1` [Compound 31, 5-(6-(4-(2-(piperidin-1-yl)ethoxy)phenyl)pyrazolo[1,5-a]pyrimidin-3-yl)quinoline], 38 nM.
For the molecule `CC(C)(CN1CCCCC1)Oc1ccc(-c2cnc3c(-c4cccc5ncccc45)cnn3c2)cc1` [Compound 32, 5-(6-(4-((2-methyl-1-(piperidin-1-yl)propan-2-yl)oxy)phenyl)pyrazolo[1,5-a]pyrimidin-3-yl)quinoline], the IC50 was found to be 106 nM.
The figure for `C[C@@H]1CNC[C@H](C)N1c1ccc(-c2cnc3c(-c4ccnc5ccccc45)cnn3c2)cn1` [Compound 33, 4-(6-(6-((2R,6S)-2,6-dimethylpiperazin-1-yl)pyridin-3-yl)pyrazolo[1,5-a]pyrimidin-3-yl)quinoline] is 22 nM; for `C[C@@H]1CNC[C@H](C)N1c1ccc(-c2cnc3c(-c4cccc5ncccc45)cnn3c2)cn1` [Compound 34] it is 56 nM.

By IC50 is commonly meant the concentration at which inhibition is half-maximal.
